Experimental data from patent US11857519B2, “Compounds and methods for the targeted degradation of enhancer of zeste homolog 2 polypeptide” (Arvinas Operations, Inc., priority 2016, dated 2024).

Target: T1, EZH2 (Homo sapiens, UniProt Q15910)
T1 construct: Protocol of the Cellular Assay of Target Protein Degradation (VCaP Cells, ELISA); endogenous in cells; host or cells: VCaP cells
Test: Cellular assay of target protein degradation (VCaP cells, ELISA)
Type: cell-based
Conditions: 4 hours, protein degradation range at indicated concentration (relative to DMSO control)
Protocol: Protocol of the Cellular Assay of Target Protein Degradation (VCaP Cells, ELISA).
For detection Cell Signaling PathScan Sandwich ELISA Catalog #12850 Lot 11 was used. VCaP cells were cultured in ATCC DMEM+ATCC FBS and plated 40,000/well 100 μl/well in RPMI P/S with 5% CSS Omega (bovine) serum into a 96 well plate. The cells were grown for a minimum of 3 days, dosed with compounds in 0.1% DMSO (diluted with 5% CSS) and incubated with aspiration for 4 hours. 100 μl of 1× Cell Signaling lysis buffer #9803 (36 mL dH2O+4 mL Cell Signaling lysis buffer) was added. The incubation was placed on cold room shaker for 10 minutes at speed 8-9. 5 μl to 100 μL of Diluent was transferred to ELISA plate (0.15 μg/mL−0.075 μg/mL) and stored at 4° C. overnight on cold room shaker speed 5 (gentle swirl) and then shaken next morning at 37° C. for 30 minutes. The preparation was washed 4×200 μl with ELISA wash buffer and aspirated with eight-channel aspirator. 100 μl/well of target protein detection antibody was added after, which the preparation was covered and shaken at 37° C. for 1 hour. 100 μl TMB was added, and the mixture was shaken for 5 min while under observation. When TMB turned light blue, 100 μl of Stop solution was added, and the mixture was shaken and read at 450 nm. Also read at 562 nm for background subtraction.

T1 sequence (Q15910 whole entry): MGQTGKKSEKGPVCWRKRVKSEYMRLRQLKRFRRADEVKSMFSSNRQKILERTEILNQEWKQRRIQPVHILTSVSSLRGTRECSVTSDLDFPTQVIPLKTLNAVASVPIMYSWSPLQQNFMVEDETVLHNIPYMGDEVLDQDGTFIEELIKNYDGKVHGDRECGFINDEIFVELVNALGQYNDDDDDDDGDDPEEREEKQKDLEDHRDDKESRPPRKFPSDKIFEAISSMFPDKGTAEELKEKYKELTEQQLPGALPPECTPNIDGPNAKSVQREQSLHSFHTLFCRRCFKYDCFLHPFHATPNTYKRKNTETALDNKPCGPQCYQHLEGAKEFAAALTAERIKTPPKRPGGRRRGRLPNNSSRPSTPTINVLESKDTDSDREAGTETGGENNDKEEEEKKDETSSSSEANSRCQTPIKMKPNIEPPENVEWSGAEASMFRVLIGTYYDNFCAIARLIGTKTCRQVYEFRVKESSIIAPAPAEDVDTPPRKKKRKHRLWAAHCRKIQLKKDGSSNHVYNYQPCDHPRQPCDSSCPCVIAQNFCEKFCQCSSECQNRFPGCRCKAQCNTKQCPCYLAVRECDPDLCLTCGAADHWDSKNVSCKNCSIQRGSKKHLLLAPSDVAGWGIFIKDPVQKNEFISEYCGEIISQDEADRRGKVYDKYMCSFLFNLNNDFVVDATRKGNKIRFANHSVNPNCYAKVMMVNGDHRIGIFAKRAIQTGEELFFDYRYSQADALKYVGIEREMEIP
T1 sequence (O75530 whole entry partner): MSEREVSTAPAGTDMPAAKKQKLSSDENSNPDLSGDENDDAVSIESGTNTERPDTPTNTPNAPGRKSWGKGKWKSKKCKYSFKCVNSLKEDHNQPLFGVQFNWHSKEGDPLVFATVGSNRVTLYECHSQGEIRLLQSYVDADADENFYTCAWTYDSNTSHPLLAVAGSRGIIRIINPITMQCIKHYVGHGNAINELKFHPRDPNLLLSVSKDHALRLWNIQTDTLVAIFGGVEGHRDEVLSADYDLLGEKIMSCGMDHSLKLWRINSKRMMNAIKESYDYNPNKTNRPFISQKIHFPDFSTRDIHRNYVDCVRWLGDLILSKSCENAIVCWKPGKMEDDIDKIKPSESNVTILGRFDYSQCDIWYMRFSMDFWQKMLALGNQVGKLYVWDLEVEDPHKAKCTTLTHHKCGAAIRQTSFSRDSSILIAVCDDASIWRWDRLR
T1 sequence (Q15022 whole entry partner): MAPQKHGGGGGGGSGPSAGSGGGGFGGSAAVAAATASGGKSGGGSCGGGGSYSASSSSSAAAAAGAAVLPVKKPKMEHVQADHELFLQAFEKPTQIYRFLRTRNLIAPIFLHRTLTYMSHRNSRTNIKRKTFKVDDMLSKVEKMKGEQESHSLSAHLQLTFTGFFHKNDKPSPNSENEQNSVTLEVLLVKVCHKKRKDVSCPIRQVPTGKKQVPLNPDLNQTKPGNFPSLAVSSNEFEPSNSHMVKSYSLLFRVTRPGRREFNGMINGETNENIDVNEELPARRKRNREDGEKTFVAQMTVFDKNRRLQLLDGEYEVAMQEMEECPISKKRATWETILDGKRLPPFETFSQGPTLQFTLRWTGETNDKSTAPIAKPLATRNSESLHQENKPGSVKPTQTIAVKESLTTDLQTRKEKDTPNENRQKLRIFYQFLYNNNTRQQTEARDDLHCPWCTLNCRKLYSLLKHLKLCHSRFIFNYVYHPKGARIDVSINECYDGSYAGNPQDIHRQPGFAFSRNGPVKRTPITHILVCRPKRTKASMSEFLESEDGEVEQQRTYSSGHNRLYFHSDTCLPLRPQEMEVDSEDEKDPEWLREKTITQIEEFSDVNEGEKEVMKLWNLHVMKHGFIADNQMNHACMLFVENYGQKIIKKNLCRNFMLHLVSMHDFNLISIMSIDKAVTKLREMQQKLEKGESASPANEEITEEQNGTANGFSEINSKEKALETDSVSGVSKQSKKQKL

| SMILES | percent target protein degradation class |
| --- | --- |
| CCN(c1cc(-c2ccc(OCCCCOCCOCCOc3cc(-c4scnc4C)ccc3CNC(=O)[C@@H]3C[C@@H](O)CN3C(=O)[C@H](C(C)C)N3Cc4ccccc4C3=O)cc2)cc(C(=O)NCc2c(C)cc(C)[nH]c2=O)c1C)C1CCOCC1 [Compound 55, (2S,4R)-N-({2-[2-(2-{4-[4-(3-{[(4,6-dimethyl-2-oxo-1,2-dihydropyridin-3-yl)methyl]carbamoyl}-5-[ethyl(oxan-4-yl)amino]-4-methylphenyl)phenoxy]butoxy}ethoxy)ethoxy]-4-(4-methyl-1,3-thiazol-5-yl)phenyl}methyl)-4-hydroxy-1-[(2S)-3-methyl-2-(1-oxo-2,3-dihydro-1H-isoindol-2-yl)butanoyl]pyrrolidine-2-carboxamide] | B (B = degradation between 30% and 60%) |
| CCN(c1cc(-c2ccc(OCCCOc3ccc4c(c3)C(=O)N([C@@H](C(=O)N3C[C@H](O)C[C@H]3C(=O)N[C@@H](C)c3ccc(-c5scnc5C)cc3)C(C)C)C4)cc2)cc(C(=O)NCc2c(C)cc(C)[nH]c2=O)c1C)C1CCOCC1 [Compound 97, (2S,4R)-1-((R)-2-(6-(3-((3′-(((4,6-dimethyl-2-oxo-1,2-dihydropyridin-3-yl)methyl)carbamoyl)-5′-(ethyl(tetrahydro-2H-pyran-4-yl)amino)-4′-methyl-[1,1′-biphenyl]-4-yl)oxy)propoxy)-1-oxoisoindolin-2-yl)-3-methylbutanoyl)-4-hydroxy-N-((S)-1-(4-(4-methylthiazol-5-yl)phenyl)ethyl)pyrrolidine-2-carboxamide] | B (B = degradation between 30% and 60%) |
| CCN(c1cc(-c2ccc(OCCCCCOCCOc3cc(-c4scnc4C)ccc3CNC(=O)[C@@H]3C[C@@H](O)CN3C(=O)[C@H](C(C)C)N3Cc4ccccc4C3=O)cc2)cc(C(=O)NCc2c(C)cc(C)[nH]c2=O)c1C)C1CCOCC1 [Compound 50, (2S,4R)-N-({2-[2-({5-[4-(3-{[(4,6-dimethyl-2-oxo-1,2-dihydropyridin-3-yl)methyl]carbamoyl}-5-[ethyl(oxan-4-yl)amino]-4-methylphenyl)phenoxy]pentyl}oxy)ethoxy]-4-(4-methyl-1,3-thiazol-5-yl)phenyl}methyl)-4-hydroxy-1-[(2S)-3-methyl-2-(1-oxo-2,3-dihydro-1H-isoindol-2-yl)butanoyl]pyrrolidine-2-carboxamide] | A (A = degradation more than 60%) |
| CCN(c1cc(-c2ccc(N3CCN(CCCOCCOCC(=O)N[C@H](C(=O)N4C[C@H](O)C[C@H]4C(=O)N[C@@H](C)c4ccc(-c5scnc5C)cc4)C(C)(C)C)CC3)cc2)cc(C(=O)NCc2c(C)cc(C)[nH]c2=O)c1C)C1CCOCC1 [Compound 119, (2S,4R)-1-((S)-2-(2-(2-(3-(4-(3′-(((4,6-dimethyl-2-oxo-1,2-dihydropyridin-3-yl)methyl)carbamoyl)-5′-(ethyl(tetrahydro-2H-pyran-4-yl)amino)-4′-methyl-[1,1′-biphenyl]-4-yl)piperazin-1-yl)propoxy)ethoxy)acetamido)-3,3-dimethylbutanoyl)-4-hydroxy-N-((S)-1-(4-(4-methylthiazol-5-yl)phenyl)ethyl)pyrrolidine-2-carboxamide] | B (B = degradation between 30% and 60%) |
| Cc1cc(C)c(CNC(=O)c2c(C)n(C(C)C3CCN(C(=O)COCCOCCOCCOCCNc4cccc5c4C(=O)N(C4CCC(=O)NC4=O)C5=O)CC3)c3ccccc23)c(=O)[nH]1 (stereo not drawn) [Compound 10, N-[(4,6-dimethyl-2-oxo-1,2-dihydropyridin-3-yl)methyl]-1-[1-(1-{1-[2-(2,6-dioxopiperidin-3-yl)-1,3-dioxo-2,3-dihydro-1H-isoindol-4-yl]-4,7,10,13-tetraoxa-1-azapentadecanoyl}piperidin-4-yl)ethyl]-2-methyl-1H-indole-3-carboxamide] | B (B = degradation between 30% and 60%) |
| CCN(c1cc(-c2ccc(CCCOCCOCC(=O)N[C@H](C(=O)N3C[C@H](O)C[C@H]3C(=O)NCc3ccc(-c4scnc4C)cc3)C(C)(C)C)cc2)cc(C(=O)NCc2c(C)cc(C)[nH]c2=O)c1C)C1CCOCC1 [Compound 47, (2S,4R)-1-[(2S)-2-[2-(2-{3-[4-(3-{[(4,6-dimethyl-2-oxo-1,2-dihydropyridin-3-yl)methyl]carbamoyl}-5-[ethyl(oxan-4-yl)amino]-4-methylphenyl)phenyl]propoxy}ethoxy)acetamido]-3,3-dimethylbutanoyl]-4-hydroxy-N-{[4-(4-methyl-1,3-thiazol-5-yl)phenyl]methyl}pyrrolidine-2-carboxamide] | B (B = degradation between 30% and 60%) |
| CCN(c1cc(-c2ccc(OCCOCCOCCOCCOCCOc3ccc(-c4csc([C@@H]5CCCN5C(=O)[C@@H](NC(=O)[C@H](C)NC)C5CCCCC5)n4)c4ccccc34)cc2)cc(C(=O)NCc2c(C)cc(C)[nH]c2=O)c1C)C1CCOCC1 [Compound 30, 5-(4-{[1-(4-{2-[(2S)-1-[(2S)-2-cyclohexyl-2-[(2S)-2-(methylamino)propanamido]acetyl]pyrrolidin-2-yl]-1,3-thiazol-4-yl}naphthalen-1-yl)-1,4,7,10,13-pentaoxapentadecan-15-yl]oxy}phenyl)-N-[(4,6-dimethyl-2-oxo-1,2-dihydropyridin-3-yl)methyl]-3-[ethyl(oxan-4-yl)amino]-2-methylbenzamide] | B (B = degradation between 30% and 60%) |
| CCN(c1cc(-c2ccc(OCCOc3cc(-c4scnc4C)ccc3CNC(=O)[C@@H]3C[C@@H](O)CN3C(=O)[C@H](C(C)C)N3Cc4ccccc4C3=O)cc2)cc(C(=O)NCc2c(C)cc(C)[nH]c2=O)c1C)C1CCOCC1 [Compound 64, N-[(2-{2-[4-(3-{[(4,6-dimethyl-2-oxo-1,2-dihydropyridin-3-yl)methyl]carbamoyl}-5-[ethyl(oxan-4-yl)amino]-4-methylphenyl)phenoxy]ethoxy}-4-(4-methyl-1,3-thiazol-5-yl)phenyl)methyl]-4-hydroxy-1-[3-methyl-2-(1-oxo-2,3-dihydro-1H-isoindol-2-yl)butanoyl]pyrrolidine-2-carboxamide] | B (B = degradation between 30% and 60%) |
| Cc1cc(C)c(CNC(=O)c2cc(-c3ccc(CN4CCN(CCOCCCCOCCCCOCC(=O)N[C@H](C(=O)N5C[C@H](O)C[C@H]5C(=O)NCc5ccc(-c6scnc6C)cc5)C(C)(C)C)CC4)cc3)cc3c2ccn3C2CCCC2)c(=O)[nH]1 [Compound 5, 1-cyclopentyl-N-[(4,6-dimethyl-2-oxo-1,2-dihydropyridin-3-yl)methyl]-6-(4-{[4-(2-{4-[4-({[(2S)-1-[(2S,4R)-4-hydroxy-2-({[4-(4-methyl-1,3-thiazol-5-yl)phenyl]methyl}carbamoyl)pyrrolidin-1-yl]-3,3-dimethyl-1-oxobutan-2-yl]carbamoyl}methoxy)butoxy]butoxy}ethyl)piperazin-1-yl]methyl}phenyl)-1H-indole-4-carboxamide] | B (B = degradation between 30% and 60%) |
